From ChEMBL document CHEMBL4480391, “Discovery and synthesis of sulfur-containing 6-substituted 5,8-dimethoxy-1,4-naphthoquinone oxime derivatives as new and potential anti-MDR cancer agents” (Eur J Med Chem, 2019)
Activity calls are given as the source filed them. The rule behind the calls is not given here.

Legend:
Bel7402/5-FU [1] = experiment: Induction of apoptosis in human Bel7402/5-FU cells assessed as early apoptotic cells at 1 uM measured after 24 hrs by Annexin V-FITC/propidium iodide staining based flow cytometry (reference value: 2.8%); format: functional
[2] = Selectivity ratio of IC50 for human A549 cells to IC50 for human A549/TAX cells; format: functional
A549 = experiment: Cytotoxicity against human A549 cells after 72 hrs by MTT assay; format: functional, cell-based; conditions: A549, 72 h
Bel7402/5-FU [3] = experiment: Induction of apoptosis in human Bel7402/5-FU cells assessed as cell shrinkage at 0.5 to 2 uM measured after 24 hrs by Hoechst 33342/propidium iodide staining based fluorescence microscopy; format: functional
MGC-803 [4] = experiment: Cytotoxicity against human MGC803 cells after 72 hrs by MTT assay; format: functional, cell-based; conditions: MGC-803, 72 h
Bel7402/5-FU [5] = experiment: Induction of apoptosis in human Bel7402/5-FU cells assessed as necrotic cells at 0.5 uM measured after 24 hrs by Annexin V-FITC/propidium iodide staining based flow cytometry (reference value: 0.137%); format: functional
Bel7402/5-FU [6] = experiment: Cell cycle arrest in human Bel7402/5-FU cells assessed as decrease in accumulation at G2/M phase at 0.25 to 1 uM measured after 24 hrs by propidium iodide staining based flow cytometry; format: functional
Bel7402/5-FU [7] = experiment: Cell cycle arrest in human Bel7402/5-FU cells assessed as accumulation at G1 phase at 0.25 uM measured after 24 hrs by propidium iodide staining based flow cytometry (reference value: 26.32%); format: functional
K562 [8] = experiment: Potency index, ratio of shikonin IC50 to test compound IC50 for human K562 cells; format: functional
Bel7402/5-FU [9] = experiment: Induction of apoptosis in human Bel7402/5-FU cells assessed as early apoptotic cells at 0.5 uM measured after 24 hrs by Annexin V-FITC/propidium iodide staining based flow cytometry (reference value: 2.8%); format: functional
[10] = Selectivity ratio of IC50 for human MCF7 cells to IC50 for human MCF7/ADR cells; format: functional
Bel7402/5-FU [11] = experiment: Induction of apoptosis in human Bel7402/5-FU cells assessed as viable cells at 0.5 uM measured after 24 hrs by Annexin V-FITC/propidium iodide staining based flow cytometry (reference value: 89%); format: functional; conditions: read-out: Activity
Bel7402/5-FU [12] = experiment: Induction of apoptosis in human Bel7402/5-FU cells measured after 24 hrs by Annexin V-FITC/propidium iodide staining based flow cytometry; format: functional, cell-based
Bel7402/5-FU [13] = experiment: Inhibition of colony formation in human Bel7402/5-FU cells up to 4 uM measured after 10 days by giemsa staining based assay; format: functional, cell-based
HCT-15 [14] = experiment: Potency index, ratio of shikonin IC50 to test compound IC50 for human HCT15 cells; format: functional
Bel7402/5-FU [15] = experiment: Cell cycle arrest in human Bel7402/5-FU cells assessed as accumulation at G1 phase at 0.5 uM measured after 24 hrs by propidium iodide staining based flow cytometry (reference value: 26.32%); format: functional
A549/TR = experiment: Cytotoxicity against human A549/TAX cells after 72 hrs by MTT assay; format: functional, cell-based
Bel7402/5-FU [16] = experiment: Cell cycle arrest in human Bel7402/5-FU cells assessed as decrease in accumulation at S phase at 0.25 to 1 uM measured after 24 hrs by propidium iodide staining based flow cytometry; format: functional
[17] = Selectivity index, ratio of IC50 for human HSF cells to IC50 for human HCT15 cells; format: toxicity; conditions: HSF cells versus HCT15 cells, read-out: Ratio IC50
K562 [18] = experiment: Cytotoxicity against human K562 cells after 72 hrs by MTT assay; format: functional, cell-based; conditions: K562, 72 h
Bel7402/5-FU [19] = experiment: Induction of apoptosis in human Bel7402/5-FU cells assessed as early apoptotic cells at 2 uM measured after 24 hrs by Annexin V-FITC/propidium iodide staining based flow cytometry (reference value: 2.8%); format: functional
Bel7402/5-FU [20] = experiment: Induction of apoptosis in human Bel7402/5-FU cells assessed as nuclear fragmentation at 0.5 to 2 uM measured after 24 hrs by Hoechst 33342/propidium iodide staining based fluorescence microscopy; format: functional, cell-based
Bel7402/5-FU [21] = experiment: Cytotoxicity against human Bel7402/5-FU cells after 72 hrs by MTT assay; format: functional, cell-based
Bel7402/5-FU [22] = experiment: Induction of apoptosis in human Bel7402/5-FU cells assessed as late apoptotic cells at 0.5 uM measured after 24 hrs by Annexin V-FITC/propidium iodide staining based flow cytometry (reference value: 8.05%); format: functional
Bel7402/5-FU [23] = experiment: Cell cycle arrest in human Bel7402/5-FU cells assessed as accumulation at G1 phase at 1 uM measured after 24 hrs by propidium iodide staining based flow cytometry (reference value: 26.32%); format: functional
[24] = Selectivity ratio of IC50 for human […] cells to IC50 for human Bel7402/5-FU cells; format: functional
Bel7402/5-FU [25] = experiment: Induction of apoptosis in human Bel7402/5-FU cells assessed as viable cells at 1 uM measured after 24 hrs by Annexin V-FITC/propidium iodide staining based flow cytometry (reference value: 89%); format: functional; conditions: read-out: Activity
Bel7402/5-FU [26] = experiment: Cell cycle arrest in human Bel7402/5-FU cells assessed as increase in accumulation at G1 phase measured after 24 hrs by propidium iodide staining based flow cytometry; format: functional
MGC-803 [27] = experiment: Potency index, ratio of shikonin IC50 to test compound IC50 for human MGC803 cells; format: functional
[28] = Cytotoxicity against human HSF cells after 72 hrs by MTT assay; format: cell-based
Bel7402/5-FU [29] = experiment: Induction of apoptosis in human Bel7402/5-FU cells assessed as necrotic cells at 2 uM measured after 24 hrs by Annexin V-FITC/propidium iodide staining based flow cytometry (reference value: 0.137%); format: functional
[30] = Cytotoxicity against human […] cells after 72 hrs by MTT assay; format: functional, cell-based
Bel7402/5-FU [31] = experiment: Induction of apoptosis in human Bel7402/5-FU cells assessed as increase in ratio of Bax/Bcl2 level at 0.5 to 4 uM measured after 24 to 48 hrs by Western blot analysis; format: functional, cell-based
Bel7402/5-FU [32] = experiment: Induction of apoptosis in human Bel7402/5-FU cells assessed as late apoptotic cells at 2 uM measured after 24 hrs by Annexin V-FITC/propidium iodide staining based flow cytometry (reference value: 8.05%); format: functional
Bel7402/5-FU [33] = experiment: Induction of apoptosis in human Bel7402/5-FU cells assessed as viable cells at 2 uM measured after 24 hrs by Annexin V-FITC/propidium iodide staining based flow cytometry (reference value: 89%); format: functional; conditions: read-out: Activity
Bel7402/5-FU [34] = experiment: Induction of apoptosis in human Bel7402/5-FU cells assessed as late apoptotic cells at 1 uM measured after 24 hrs by Annexin V-FITC/propidium iodide staining based flow cytometry (reference value: 8.05%); format: functional
NCI/ADR-RES = experiment: Cytotoxicity against human MCF7/ADR cells after 72 hrs by MTT assay; format: functional, cell-based
MCF7 = experiment: Cytotoxicity against human MCF7 cells after 72 hrs by MTT assay; format: functional, cell-based; conditions: MCF7, 72 h
HCT-15 [35] = experiment: Cytotoxicity against human HCT15 cells after 72 hrs by MTT assay; format: functional, cell-based; conditions: HCT-15, 72 h
Bel7402/5-FU [36] = experiment: Induction of apoptosis in human Bel7402/5-FU cells assessed as necrotic cells at 1 uM measured after 24 hrs by Annexin V-FITC/propidium iodide staining based flow cytometry (reference value: 0.137%); format: functional

For `CCCCCCCCC(SC(=O)/C=C/c1ccccc1)c1cc(OC)c2c(c1OC)/C(=N/O)C=C/C2=N\O` (stereo not drawn), the Activity (Bel7402/5-FU [1]) was 32.2%, the “Ratio IC50” value [2] was 9.13 and the IC50 (A549) was 6.57 µM. For the same compound, the Activity (Bel7402/5-FU [3]) was “Active”, the IC50 (MGC-803 [4]) was 0.79 µM and the Activity (Bel7402/5-FU [5]) was 1.17%. For the same compound, the Activity (Bel7402/5-FU [6]) was “Active”, the Activity (Bel7402/5-FU [7]) was 35.56% and the “Ratio IC50” value (K562 [8]) was 2. For the same compound, the Activity (Bel7402/5-FU [9]) was 22.1%, the “Ratio IC50” value [10] was 8.37 and the viability at 0.5 µM (Bel7402/5-FU [11]) was 64.4%. The Activity (Bel7402/5-FU [12]) was “Dose-dependent effect”, the inhibition (Bel7402/5-FU [13]) was “Active” and the “Ratio IC50” value (HCT-15 [14]) was 2. For the same compound, the Activity (Bel7402/5-FU [15]) was 44.5%, the IC50 (A549/TR) was 0.72 µM and the Activity (Bel7402/5-FU [16]) was “Active”. For the same compound, the selectivity ratio [17] was > 132, the IC50 (K562 [18]) was 0.46 µM and the Activity (Bel7402/5-FU [19]) was 58.3%. The Activity (Bel7402/5-FU [20]) was “Active”, the IC50 (Bel7402/5-FU [21]) was 0.29 µM and the Activity (Bel7402/5-FU [22]) was 12.3%. The Activity (Bel7402/5-FU [23]) was 50.69%, the “Ratio IC50” value [24] was 1.45 and the viability at 1 µM (Bel7402/5-FU [25]) was 47.9%. The Activity (Bel7402/5-FU [26]) was “Dose-dependent effect”, the “Ratio IC50” value (MGC-803 [27]) was 2 and the IC50 [28] was > 50 µM. The Activity (Bel7402/5-FU [29]) was 1.7%, the IC50 [30] was 0.42 µM and the Activity (Bel7402/5-FU [31]) was “Active”. The Activity (Bel7402/5-FU [32]) was 29.2%, the viability at 2 µM (Bel7402/5-FU [33]) was 10.7% and the Activity (Bel7402/5-FU [34]) was 15.2%. The IC50 (NCI/ADR-RES) was 1.33 µM, the IC50 (MCF7) was 11.1 µM and the IC50 (HCT-15 [35]) was 0.38 µM. The Activity (Bel7402/5-FU [36]) was 4.64%.
For `CCCCCCCCCC(SC(=O)c1cc(OC)c(OC)c(OC)c1)c1cc(OC)c2c(c1OC)/C(=N/O)C=C/C2=N\O` (stereo not drawn), the “Ratio IC50” value [2] was 15.9, the IC50 (A549) was 16.1 µM and the IC50 (MGC-803 [4]) was 1.25 µM. For the same compound, the “Ratio IC50” value [10] was 3.51, the IC50 (A549/TR) was 1.01 µM and the selectivity ratio [17] was > 61. The IC50 (K562 [18]) was 0.79 µM, the IC50 (Bel7402/5-FU [21]) was 1.12 µM and the “Ratio IC50” value [24] was 1.2. The IC50 [28] was > 50 µM, the IC50 [30] was 1.34 µM and the IC50 (NCI/ADR-RES) was 5.48 µM. It also gave an IC50 (MCF7) of 19.3 µM and an IC50 (HCT-15 [35]) of 0.82 µM.
With `CCCCCCCC(SCCC(C)C)c1cc(OC)c2c(c1OC)/C(=N/O)C=C/C2=N\O` (stereo not drawn) the “Ratio IC50” value [2] was 5.38, the IC50 (A549) was 24.3 µM and the IC50 (MGC-803 [4]) was 1.35 µM. The “Ratio IC50” value [10] was 2.09, the IC50 (A549/TR) was 4.52 µM and the selectivity ratio [17] was > 61. The IC50 (K562 [18]) was 1 µM, the IC50 (Bel7402/5-FU [21]) was 2.92 µM and the “Ratio IC50” value [24] was 1.53. The IC50 [28] was > 50 µM, the IC50 [30] was 4.47 µM and the IC50 (NCI/ADR-RES) was 18.5 µM. It also gave an IC50 (MCF7) of 38.6 µM and an IC50 (HCT-15 [35]) of 0.82 µM.
